# Laboratory results as given in patent publication EP0549857A1, “Antibacterial quinolone carboxylic acid derivatives” (KOREA RESEARCH INSTITUTE OF CHEMICAL TECHNOLOGY, priority 1991, dated 1993).
# Like-named read-outs stand apart in the source and are kept apart here.
# Legend:
# Test in all cases: In vitro anti-bacterial activity test (MIC, two-fold agar dilution)
# Type in all cases: cell-based
# [1] = test system: Streptococcus pyogenes 308A; settings: Mueller-Hinton agar, 10⁷ CFU/mℓ, 37°C, 18 hours
# [2] = test system: Klebsiella aerogenes 1082E; settings: Mueller-Hinton agar, 10⁷ CFU/mℓ, 37°C, 18 hours
# [3] = test system: Pseudomonas aeruginosa 1771M; settings: 18 h
# [4] = test system: Streptococcus faecium MD 8b; settings: Streptococcus faecium MD 8b, Mueller-Hinton agar, 10⁷ CFU/mℓ, 37°C, 18 hours
# Escherichia coli DC 0 = settings: 10⁷ CFU/mℓ, 37°C, 18 hours
# Escherichia coli 1507E = settings: Mueller-Hinton agar, 10⁷ CFU/mℓ, 37°C, 18 hours
# Escherichia coli OTEM = settings: Mueller-Hinton agar, 10⁷ CFU/mℓ, 37°C, 18 hours
# [5] = test system: Pseudomonas aeruginosa 1771; settings: Pseudomonas aeruginosa 1771, Mueller-Hinton agar, 10⁷ CFU/mℓ, 37°C, 18 hours
# [6] = test system: Staphylococcus aureus 503; settings: Staphylococcus aureus 503, Mueller-Hinton agar, 10⁷ CFU/mℓ, 37°C, 18 hours
# [7] = test system: Staphylococcus aureus SG 511; settings: Staphylococcus aureus SG 511, Mueller-Hinton agar, 10⁷ CFU/mℓ, 37°C, 18 hours
# [8] = test system: Streptococcus pyogenes 77A; settings: Streptococcus pyogenes 77A, Mueller-Hinton agar, 10⁷ CFU/mℓ, 37°C, 18 hours
# Enterobacter cloacae P99 = settings: Mueller-Hinton agar, 10⁷ CFU/mℓ, 37°C, 18 hours
# Escherichia coli O 55 = settings: 10⁷ CFU/mℓ, 37°C, 18 hours
# [9] = test system: Enterobacter cloacae 1321E; settings: Mueller-Hinton agar, 10⁷ CFU/mℓ, 37°C, 18 hours
# [10] = test system: Staphylococcus aureus 285; settings: Staphylococcus aureus 285, Mueller-Hinton agar, 10⁷ CFU/mℓ, 37°C, 18 hours
# [11] = test system: Klebsiella aerogenes 1522E; settings: Mueller-Hinton agar, 10⁷ CFU/mℓ, 37°C, 18 hours
# Escherichia coli DC 2 = settings: 10⁷ CFU/mℓ, 37°C, 18 hours
# [12] = test system: Pseudomonas aeruginosa 9027; settings: Pseudomonas aeruginosa 9027, Mueller-Hinton agar, 10⁷ CFU/mℓ, 37°C, 18 hours
# Salmonella typhimurium = settings: Mueller-Hinton agar, 10⁷ CFU/mℓ, 37°C, 18 hours
# [13] = test system: Pseudomonas aeruginosa 1592E; settings: Mueller-Hinton agar, 10⁷ CFU/mℓ, 37°C, 18 hours
# [14] = Enterococcus faecium, MD8B, read-out: MIC
# [15] = DC0, Mueller-Hinton agar, read-out: MIC
# [16] = O55, Mueller-Hinton agar, read-out: MIC
# [17] = DC2, Mueller-Hinton agar, read-out: MIC
# [18] = Salmonella enterica, read-out: MIC
Compound,MIC ([1]; read-out: MIC) [µg/mL],MIC ([2]; read-out: MIC) [µg/mL],MIC [3] [µg/mL],"MIC [4, 14] [µg/mL]",MIC (Escherichia coli DC 0; [15]) [µg/mL],MIC (Escherichia coli 1507E; read-out: MIC) [µg/mL],MIC (Escherichia coli OTEM; read-out: MIC) [µg/mL],MIC ([5]; read-out: MIC) [µg/mL],MIC ([6]; read-out: MIC) [µg/mL],"MIC ([7]; SG511, read-out: MIC) [µg/mL]",MIC ([8]; read-out: MIC) [µg/mL],MIC (Enterobacter cloacae P99; read-out: MIC) [µg/mL],MIC (Escherichia coli O 55; [16]) [µg/mL],MIC ([9]; read-out: MIC) [µg/mL],MIC ([10]; read-out: MIC) [µg/mL],MIC ([11]; read-out: MIC) [µg/mL],MIC (Escherichia coli DC 2; [17]) [µg/mL],MIC ([12]; read-out: MIC) [µg/mL],MIC (Salmonella typhimurium; [18]) [µg/mL],MIC ([13]; read-out: MIC) [µg/mL],further results
"CNC1CCC2=C1CN(c1c(F)cc3c(=O)c(C(=O)O)cn4c3c1OC[C@@H]4C)C2 (stereo partly drawn) [Example 17, 9-fluoro-10-[6-methylamino-3-azabicyclo [3,3,0]oct-1(5)ene-3-yl]-3-(S)-methyl-7-oxo-2,3-dihydro-7H-pyrido[1,2,3-de]-1,4-benzoxazine-6-carboxylic acid]",3.12,0.195,3.12,0.391,3.12,0.781,0.391,12.5,0.781,0.391,0.195,0.781,0.195,0.391,0.781,1.56,0.391,12.5,0.391,6.25,
"7-[6-amino-3-azabicyclo[3,3,0]oct-1(5) ene-3-yl]-5-amino-1-cyclopropyl-6,8-difluoro-1,4-dihydro-4-oxoquinoline-3-carboxylic acid [Example 10]",,,,,,,,,,,,,,,,,,,,,MIC [1]: 0.195 µg/mL; MIC [2]: 0.007 µg/mL; MIC [4]: 0.195 µg/mL; MIC (Escherichia coli DC 0; Mueller-Hinton agar): 0.781 µg/mL; MIC (Escherichia coli 1507E): 0.049 µg/mL; MIC (Escherichia coli OTEM): 0.049 µg/mL; MIC [5]: 1.563 µg/mL; MIC [6]: 0.025 µg/mL; MIC [7]: 0.025 µg/mL; MIC [8]: 0.049 µg/mL; MIC (Enterobacter cloacae P99): 0.025 µg/mL; MIC (Escherichia coli O 55; Mueller-Hinton agar): 0.025 µg/mL; MIC [9]: 0.025 µg/mL; MIC [10]: 0.049 µg/mL; MIC [11]: 0.098 µg/mL; MIC (Escherichia coli DC 2; Mueller-Hinton agar): 0.049 µg/mL; MIC [12]: 1.563 µg/mL; MIC (Salmonella typhimurium): 0.025 µg/mL; MIC [13]: 1.563 µg/mL
"CNC1CCC2=C1CN(c1c(F)cc3c(=O)c(C(=O)O)cn(C4CC4)c3c1Cl)C2 (stereo not shown) [Example 4, 7-[6-methylamino-3-azabicyclo[3,3,0]oct-1(5)ene-3-yl]-8-chloro-1-cyclopropyl-6-fluoro-1,4-dihydro-4-oxoquinoline-3-carboxylic acid]",0.195,< 0.002,0.781,0.049,0.781,0.098,0.098,3.12,0.025,0.025,0.025,0.098,0.025,0.098,0.049,0.195,0.025,3.12,0.049,3.12,
"CNC1CCC2=C1CN(c1c(F)c(N)c3c(=O)c(C(=O)O)cn(C4CC4)c3c1F)C2 (stereo not shown) [Example 11, 7-[6-methylamino-3-azabicyclo[3,3,0]oct-1(5)ene-3-yl]-5-amino-1-cyclopropyl-6,8-difluoro-1,4-dihydro-4-oxoquinoline-3-carboxylic acid]",0.391,0.007,1.56,0.195,1.56,0.098,0.049,3.12,0.049,0.195,0.195,0.195,0.025,0.049,0.049,0.195,0.049,3.12,0.098,3.12,
"NC1CCCC2=C1CN(c1c(F)cc3c(=O)c(C(=O)O)cn(C4CC4)c3c1F)C2 (stereo not shown) [Example 9, 7-[6-amino-3-azabicyclo[4,3,0]non-1(5)ene-3-yl]-1-cyclopropyl-6,8-difluoro-1,4-dihydro-4-oxoquinoline-3-carboxylic acid]",0.391,0.195,0.781,0.098,0.781,0.098,0.098,3.12,0.098,0.098,0.098,0.049,0.049,,0.098,0.195,0.195,3.12,0.013,3.12,
"CNC1CCC2=C1CN(c1nc3c(cc1F)c(=O)c(C(=O)O)cn3C1CC1)C2 (stereo not shown) [Example 15, 7-[6-methylamino-3-azabicyclo[3,3,0]oct-1(5)ene-3-yl]-1-cyclopropyl-6-fluoro-1,4-dihydro-4-oxo-1,8-naphthyridine-3-carboxylic acid]",0.781,0.025,1.56,0.195,1.56,0.195,0.098,3.12,0.098,0.098,0.195,0.049,0.049,0.049,0.195,0.195,0.391,3.12,0.195,3.12,
